Results published in ChEMBL document CHEMBL5728734, “2,6-dioxaspiro [4,5] decane derivatives and preparation method therefor and pharmaceutical applications thereof” (2021).
pEC50: −log10 of the molar value.

These molecules were tested against Mu-type opioid receptor (Homo sapiens, UniProt P35372) (assay: Detection of MOR cAMP Agonist Activity: The experiment was performed using a cAMP detection kit from Cisbio (Cisbio #62AM4PEJ).).
Mu-type opioid receptor, sequence (P35372 whole entry): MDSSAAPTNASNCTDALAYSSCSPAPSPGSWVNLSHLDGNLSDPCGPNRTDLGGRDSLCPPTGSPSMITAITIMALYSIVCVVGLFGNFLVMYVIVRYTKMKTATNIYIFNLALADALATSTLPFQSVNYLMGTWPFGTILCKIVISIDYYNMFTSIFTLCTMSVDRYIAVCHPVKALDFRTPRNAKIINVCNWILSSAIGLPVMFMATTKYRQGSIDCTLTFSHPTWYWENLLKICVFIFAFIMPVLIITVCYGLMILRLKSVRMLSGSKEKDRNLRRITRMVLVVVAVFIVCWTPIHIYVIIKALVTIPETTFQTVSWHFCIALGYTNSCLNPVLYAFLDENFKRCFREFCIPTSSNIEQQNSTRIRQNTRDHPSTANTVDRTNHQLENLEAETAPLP
`c1ccc([C@]2(CCNCc3scc4c3CCC4)CCO[C@]3(CCOC3)C2)nc1` was tested, and the pEC50 was 9.33. `Fc1ccc([C@]2(CCNCc3scc4c3CCC4)CCO[C@]3(CCOC3)C2)nc1` gave a pEC50 of 10.00. Molecule `c1ccc([C@]2(CCN[C@H]3CCc4ccccc43)CCO[C@]3(CCOC3)C2)nc1` has a pEC50 of 8.40. `Cc1cccc(CNCC[C@@]2(c3ccc(F)cn3)CCO[C@]3(CCOC3)C2)c1` gave a pEC50 of 10.00. `c1ccc([C@]2(CCNCc3cc4c(s3)CCC4)CCOC3(CCCC3)C2)nc1` was tested, and the pEC50 was 9.05.
